Experiments:
Type in all cases: in vivo
[1] = tested on: heartshape false pickerelweed (Monochoria vaginalis (Burm.f.) C.Presl); assay: Test Example 1: herbicidal effect by soil application to paddy field; details: paddy field soil application; active ingredient 1,000 g per 1 hectare; wettable powder added dropwise to water surface the day after sowing; examined on the 21st day after application
Outline: (§1)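 Under greenhouse conditions, seeds sown on puddled paddy soil in 100 cm2 pots under 3 cm of standing water received the test compound; injury was assessed with a standard scoring scheme three weeks (day 21) after treatment.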

[2] = tested on: Japanese bulrush (Scirpus juncoides Roxb.); assay: as above; details: paddy field soil application; active ingredient 1,000 g per 1 hectare; wettable powder added dropwise to water surface the day after sowing; examined on the 21st day after application
Outline: as §1

[3] = tested on: early watergrass (Echinochloa oryzicola Vasing); assay: as above; details: paddy field soil application; active ingredient 1,000 g per 1 hectare; wettable powder added dropwise to water surface the day after sowing; examined on the 21st day after application
Outline: as §1

[4] = tested on: velvetleaf (Abutilon theophrasti medicus); assay: Test Example 3: herbicidal effect by application to upland field (foliage treatment); details: foliage treatment, plants grown two weeks, 1,000 g active ingredient per hectare, 14th day after application
Outline: (§2)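 Dose 1,000 g active ingredient/ha, sprayed as diluted wettable powder over entire plants two weeks after sowing in field soil. Kept in greenhouse; herbicidal effect graded on a standard scale on day 14.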

[5] = tested on: barnyardgrass (Echinochloa crus-galli (L.) P. Beauv. var. crus-galli); assay: as above; details: foliage treatment, plants grown two weeks, 1,000 g active ingredient per hectare, 14th day after application
Outline: as §2

[6] = tested on: green foxtail (Setaria viridis (L.) P. Beauv.); assay: as above; details: foliage treatment, plants grown two weeks, 1,000 g active ingredient per hectare, 14th day after application
Outline: as §2

[7] = tested on: slender amaranth (Amaranthus viridis L.); assay: as above; details: foliage treatment, plants grown two weeks, 1,000 g active ingredient per hectare, 14th day after application
Outline: as §2

[8] = tested on: velvetleaf (Abutilon theophrasti medicus); assay: Test Example 2: herbicidal effect by soil application to upland field; details: soil surface spray, upland field soil, 1,000 g active ingredient per hectare, 21st day after application
Outline: (§3)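 Herbicidal activity was graded on a standard scale on day 21 after soil application. The covered, freshly sown pots of field soil received an aqueous wettable-powder spray delivering 1,000 g active ingredient/ha at 1,000 liters/ha and were kept in a greenhouse.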

[9] = tested on: barnyardgrass (Echinochloa crus-galli (L.) P. Beauv. var. crus-galli); assay: as above; details: soil surface spray, upland field soil, 1,000 g active ingredient per hectare, 21st day after application
Outline: as §3

[10] = tested on: green foxtail (Setaria viridis (L.) P. Beauv.); assay: as above; details: soil surface spray, upland field soil, 1,000 g active ingredient per hectare, 21st day after application
Outline: as §3

[11] = tested on: slender amaranth (Amaranthus viridis L.); assay: as above; details: soil surface spray, upland field soil, 1,000 g active ingredient per hectare, 21st day after application
Outline: as §3

| Structure (SMILES) | herbicidal effect, Monochoria vaginalis (Burm. f.) C. Presl [1] | herbicidal effect, Scirpus juncoides Roxb. [2] | herbicidal effect, Echinochloa oryzicola Vasing [3] | herbicidal effect (index), Velvetleaf [4] | herbicidal effect (index), Barnyardgrass [5] | herbicidal effect (index), Green Foxtail [6] | herbicidal effect (index), Slender Amaranth [7] | herbicidal effect (index), Velvetleaf [8] | herbicidal effect (index), Barnyardgrass [9] | herbicidal effect (index), Green Foxtail [10] | herbicidal effect (index), Slender Amaranth [11] |
| --- | --- | --- | --- | --- | --- | --- | --- | --- | --- | --- | --- |
| CC(C)Cn1c(C(F)(F)F)ccc(C(=O)C2=C(O)CCCC2=O)c1=O [I-6] | 5 (90% or more of herbicidal effect and crop phytotoxicity) | 5 (90% or more of herbicidal effect and crop phytotoxicity) | 5 (90% or more of herbicidal effect and crop phytotoxicity) | 5 (90% or more of herbicidal effect and crop phytotoxicity) | 5 (90% or more of herbicidal effect and crop phytotoxicity) | 5 (90% or more of herbicidal effect and crop phytotoxicity) | 5 (90% or more of herbicidal effect and crop phytotoxicity) | 5 (90% or more of herbicidal effect and crop phytotoxicity) | 5 (90% or more of herbicidal effect and crop phytotoxicity) | 5 (90% or more of herbicidal effect and crop phytotoxicity) | 5 (90% or more of herbicidal effect and crop phytotoxicity) |
| CCC(C)n1c(C(F)(F)F)ccc(C(=O)C2=C(O)CCCC2=O)c1=O (stereo not drawn) [I-7] | 5 (90% or more of herbicidal effect and crop phytotoxicity) | 5 (90% or more of herbicidal effect and crop phytotoxicity) | 5 (90% or more of herbicidal effect and crop phytotoxicity) | 5 (90% or more of herbicidal effect and crop phytotoxicity) | 5 (90% or more of herbicidal effect and crop phytotoxicity) | 5 (90% or more of herbicidal effect and crop phytotoxicity) | 5 (90% or more of herbicidal effect and crop phytotoxicity) | 5 (90% or more of herbicidal effect and crop phytotoxicity) | 5 (90% or more of herbicidal effect and crop phytotoxicity) | 5 (90% or more of herbicidal effect and crop phytotoxicity) | 5 (90% or more of herbicidal effect and crop phytotoxicity) |
| CCCCCCn1c(C(F)(F)F)ccc(C(=O)C2=C(O)CCCC2=O)c1=O [I-9] | 5 (90% or more of herbicidal effect and crop phytotoxicity) | 5 (90% or more of herbicidal effect and crop phytotoxicity) | 5 (90% or more of herbicidal effect and crop phytotoxicity) | 5 (90% or more of herbicidal effect and crop phytotoxicity) | 5 (90% or more of herbicidal effect and crop phytotoxicity) | 4 (70 to less than 90% of herbicidal effect and crop phytotoxicity) | 5 (90% or more of herbicidal effect and crop phytotoxicity) | 5 (90% or more of herbicidal effect and crop phytotoxicity) | 4 (70 to less than 90% of herbicidal effect and crop phytotoxicity) | 4 (70 to less than 90% of herbicidal effect and crop phytotoxicity) | 5 (90% or more of herbicidal effect and crop phytotoxicity) |
